Data from ChEMBL document CHEMBL5543088, “Targeting G-rich sequence to regulate the transcription of murine double minute (MDM) genes in triple-negative breast cancers” (Eur J Med Chem, 2024).
Each block holds one compound with its values, some of them ahead of it. Active and inactive are the calls of the source. The calls are words filed in the database; no cut-off is given here.

Assays:
HCC1937 [1] = assay: Inhibition of cell proliferation in human HCC1937 cells by MTT assay; type: functional, cell-based
[2] = Inhibition of cell proliferation in HUVEC cells by MTT assay; type: toxicity, cell-based; details: human
[3] = Inhibition of cell proliferation in human HL7702 cells by MTT assay; type: toxicity, cell-based; details: HL7702 (L02) cells
Quadruplex RNA [4] = assay: Binding affinity to NRAS RNA G-quadruplex (unknown origin) assessed as thermal stability by measuring increase in melting temperature by FRET assay; type: nucleic-acid assay
HCC1937 [5] = assay: Downregulation of MDMX level in human HCC1937 cells upto 3 uM incubated for 24 hrs by Western blot analysis; type: functional, cell-based
HCC1806 = assay: Inhibition of cell proliferation in human HCC1806 cells by MTT assay; type: functional, cell-based
HCC1937 [6] = assay: Downregulation of MDM2 level in human HCC1937 cells upto 3 uM incubated for 24 hrs by Western blot analysis; type: functional, cell-based
MDA-MB-231 = assay: Inhibition of cell proliferation in human MDA-MB-231 cells by MTT assay; type: functional, cell-based
HCC1937 [7] = assay: Effect on cell proliferation in human HCC1937 cells overexpressing BLM assessed as cell survival at 6 uM; type: functional, cell-based
RNA [8] = assay: Binding affinity to biotin-labeled G1 of MDM2 (unknown origin) immobilized on SA biosensor assessed as dissociation constant by BLI assay; type: nucleic-acid assay, Homo sapiens
Quadruplex DNA [9] = assay: Binding affinity to biotin-labeled c-myc DNA G-quadruplex (unknown origin) immobilized on SA biosensor assessed as dissociation constant by BLI assay; type: nucleic-acid assay
RNA [10] = assay: Binding affinity to FAM/TAMRA-labeled G5 of MDMX (unknown origin) assessed as thermal stability by measuring increase in melting temperature by FRET assay; type: nucleic-acid assay; details: Homo sapiens
Quadruplex DNA [11] = assay: Binding affinity to c-myc DNA G-quadruplex (unknown origin) assessed as thermal stability by measuring increase in melting temperature by FRET assay; type: nucleic-acid assay
RNA [12] = assay: Binding affinity to FAM/TAMRA-labeled G1 of MDM2 (unknown origin) assessed as thermal stability by measuring increase in melting temperature by FRET assay; type: nucleic-acid assay; details: Homo sapiens
RNA [13] = assay: Binding affinity to biotin-labeled G5 of MDMX (unknown origin) immobilized on SA biosensor assessed as dissociation constant by BLI assay; type: nucleic-acid assay, Homo sapiens
RNA [14] = assay: Inhibition of wild-type G1 of MDM2 expressed in human HCC1937 cells upto 1 uM incubated for 24 hrs by luciferase reporter assay; type: cell-based
RNA [15] = assay: Induction of wild-type G5 of MDMX expressed in human HCC1937 cells upto 1 uM incubated for 24 hrs by luciferase reporter assay; type: cell-based; details: filed as activator
HCC1937 [16] = assay: Induction of apoptosis in human HCC1937 cells assessed as increase in cleaved caspase-3 level upto 6 uM incubated for 24 hrs by Western blot analysis; type: functional, cell-based
RNA [17] = assay: Binding affinity to G5 of MDMX (unknown origin) at 10 uM by CD spectrum assay; type: nucleic-acid assay; details: Homo sapiens, filed as activator
HCC1937 [18] = assay: Inhibition of cell proliferation in siMDM2-treated human HCC1937 cells by MTT assay; type: functional, cell-based; details: dose <= 6.0 µM
dsDNA = assay: Binding affinity to biotin-labeled ds26 DNA (unknown origin) immobilized on SA biosensor assessed as dissociation constant by BLI assay; type: nucleic-acid assay
HCC1937 [19] = assay: Induction of apoptosis in siMDMX-treated human HCC1937 cells at 6 uM (reference value: 55.8 %); type: functional
HCC1937 [20] = assay: Downregulation of MDM2 level in human HCC1937 cells upto 6 uM incubated for 24 hrs by Western blot analysis; type: functional, cell-based
RNA [21] = assay: Inhibition of G1 mutant of MDM2 expressed in human HCC1937 cells upto 3 uM incubated for 24 hrs by luciferase reporter assay; type: cell-based
RNA [22] = assay: Binding affinity to G1 of MDM2 (unknown origin) at 10 uM by CD spectrum assay; type: nucleic-acid assay; details: Homo sapiens
RNA [23] = assay: Inhibition of wild-type G1 of MDM2 expressed in human HCC1937 cells upto 3 uM incubated for 24 hrs by luciferase reporter assay; type: cell-based
HCC1937 [24] = assay: Inhibition of apoptosis in siMDM2-treated human HCC1937 cells at 6 uM (reference value: 55.8 %); type: functional
HCC1937 [25] = assay: Upregulation of MDMX level in siMDM2-treated human HCC1937 cells upto 6 uM by Western blot analysis; type: functional, cell-based
RNA [26] = assay: Binding affinity to TAMRA-labeled wild-type G5 of MDMX transfected in human HCC1937 cells at 3 uM incubated for 6 hrs by BG4 antibody based analysis; type: cell-based; details: filed as activator
RNA [27] = assay: Induction of G5 mutant of MDMX expressed in human HCC1937 cells upto 3 uM incubated for 24 hrs by luciferase reporter assay; type: cell-based
HCC1937 [28] = assay: Inhibition of cell proliferation in human HCC1937 cells assessed as decrease in cell survival at 6 uM relative to control; type: functional
Quadruplex RNA [29] = assay: Binding affinity to biotin-labeled NRAS RNA G-quadruplex (unknown origin) immobilized on SA biosensor assessed as dissociation constant by BLI assay; type: nucleic-acid assay
HCC1937 [30] = assay: Effect on H2AX phosphorylation at Ser139 in human HCC1937 cells upto 6 uM incubated for 24 hrs by Western blot analysis; type: functional, cell-based
RNA [31] = assay: Binding affinity to TAMRA-labeled wild-type G1 of MDM2 transfected in human HCC1937 cells at 3 uM incubated for 6 hrs by BG4 antibody based analysis; type: cell-based
HCC1937 [32] = assay: Inhibition of cell proliferation in siMDMX-treated human HCC1937 cells by MTT assay; type: functional, cell-based
RNA [33] = assay: Binding affinity to TAMRA-labeled G1 mutant of MDM2 transfected in human HCC1937 cells at 3 uM incubated for 6 hrs by BG4 antibody based analysis; type: cell-based
HCC1937 [34] = assay: Induction of apoptosis in siMDMX-treated human HCC1937 cells assessed as increase in cleaved caspase-3 level upto 6 uM by Western blot analysis; type: functional, cell-based
HCC1937 [35] = assay: Induction of apoptosis in siMDM2-treated human HCC1937 cells assessed as increase in cleaved caspase-3 level upto 6 uM by Western blot analysis; type: functional, cell-based
HCC1937 [36] = assay: Upregulation of MDMX mRNA level in human HCC1937 cells upto 3 uM by qPCR analysis; type: functional, cell-based
HCC1937 [37] = assay: Effect on DNAPKcs phosphorylation at Ser2056 in human HCC1937 cells upto 6 uM incubated for 24 hrs by Western blot analysis; type: functional, cell-based
HCC1937 [38] = assay: Downregulation of MDM2 level in siMDMX-treated human HCC1937 cells upto 6 uM by Western blot analysis; type: functional, cell-based
HCC1937 [39] = assay: Upregulation of MDMX level in human HCC1937 cells upto 6 uM incubated for 24 hrs by Western blot analysis; type: functional, cell-based
HCC1937 [40] = assay: Downregulation of MDM2 mRNA level in human HCC1937 cells upto 3 uM by qPCR analysis; type: functional, cell-based
RNA [41] = assay: Induction of wild-type G5 of MDMX expressed in human HCC1937 cells upto 3 uM incubated for 24 hrs by luciferase reporter assay; type: cell-based; details: filed as activator
RNA [42] = assay: Binding affinity to TAMRA-labeled G5 mutant of MDMX transfected in human HCC1937 cells at 3 uM incubated for 6 hrs by BG4 antibody based analysis; type: cell-based
DNA = assay: Binding affinity to biotin-labeled ss26 DNA (unknown origin) immobilized on SA biosensor assessed as dissociation constant by BLI assay; type: nucleic-acid assay
HCC1937 [43] = assay: Upregulation of MDMX level in siMDMX-treated human HCC1937 cells upto 6 uM by Western blot analysis; type: functional, cell-based
HCC1937 [44] = assay: Inhibition of cell proliferation in Nutlin3a-treated human HCC1937 cells by MTT assay; type: functional, cell-based
HCC1937 [45] = assay: Effect on cell proliferation in human HCC1937 cells overexpressing BLM assessed as cell survival at 6 uM relative to control; type: functional; details: read-out: Activity

Structure (SMILES): Cc1c2ccccc2c(C[P+](c2ccccc2)(c2ccccc2)c2ccccc2)c2ccccc12
Kd (RNA [8]): 9.8 µM
ΔTm (Quadruplex RNA [4]): -0.4 °C
Kd (Quadruplex DNA [9]): > 25 µM
ΔTm (RNA [10]): 22 °C
ΔTm (Quadruplex DNA [11]): 17 °C
ΔTm (RNA [12]): 25 °C
Kd (RNA [13]): 7.3 µM

Structure (SMILES): C[n+]1ccc(-c2c3nc(c(-c4cc[n+](C)cc4)c4ccc([nH]4)c(-c4cc[n+](C)cc4)c4ccc([nH]4)c(-c4cc[n+](C)cc4)c4nc2C=C4)C=C3)cc1
inhibition (RNA [14]): Active
Activity (RNA [15]): Active

Structure (SMILES): N=C(N)SCc1ccc([N+](=O)[O-])cc1
IC50 (HCC1937 [1]): > 50 µM
IC50 [2]: > 50 µM
IC50 [3]: > 50 µM
IC50 (HCC1806): > 50 µM
IC50 (MDA-MB-231): > 50 µM

Structure (SMILES): c1ccc([P+](Cc2c3ccccc3cc3ccccc23)(c2ccccc2)c2ccccc2)cc1
Kd (RNA [8]): 10.6 µM
ΔTm (Quadruplex RNA [4]): 0.2 °C
Kd (Quadruplex DNA [9]): > 25 µM
ΔTm (RNA [10]): 22 °C
ΔTm (Quadruplex DNA [11]): 16.5 °C
ΔTm (RNA [12]): 24 °C
Kd (RNA [13]): 8.8 µM

Structure (SMILES): Brc1c2ccccc2c(C[P+](c2ccccc2)(c2ccccc2)c2ccccc2)c2ccccc12.[Br-]
inhibition (HCC1937 [1]; dose <= 6.0 µM): Dose-Dependent Effect
Activity (HCC1937 [16]): Active
Activity (RNA [17]): Active
inhibition (HCC1937 [18]): inactive
Kd (dsDNA): 23.5 µM
Activity (HCC1937 [19]): ~70.4%
Activity (HCC1937 [20]): Active
inhibition (RNA [21]): inactive
Activity (RNA [22]): Active
inhibition (RNA [23]): Active
inhibition at 6 µM (HCC1937 [24]): 30.6%
ΔTm (Quadruplex RNA [4]): 0.1 °C
Activity (HCC1937 [25]): Active
Activity (RNA [26]): Active
Activity (RNA [27]): inactive
inhibition at 6 µM (HCC1937 [28]): 27.7%
Kd (Quadruplex RNA [29]): 24 µM
Activity (HCC1937 [30]): inactive
Activity (RNA [31]): Active
inhibition (HCC1937 [32]): Active
Activity (RNA [33]): inactive
Kd (Quadruplex DNA [9]): 15.6 µM
ΔTm (RNA [10]): 30 °C
Activity (HCC1937 [34]): Active
ΔTm (Quadruplex DNA [11]): 18 °C
ΔTm (RNA [12]): 33 °C
Activity (HCC1937 [35]): inactive
Activity (HCC1937 [36]): Active
Activity (HCC1937 [37]): inactive
Activity (HCC1937 [38]): Active
Activity (HCC1937 [39]): Active
Activity (HCC1937 [40]): Active
Activity (RNA [41]): Active
Activity (RNA [42]): inactive
Kd (DNA): 10.8 µM
Activity (HCC1937 [43]): Active
inhibition (HCC1937 [44]): inactive
viability at 6 µM (HCC1937 [45]): 85.3%

The next lines start with results.

IC50 (HCC1937 [1]): 6.4 µM
ΔTm (Quadruplex RNA [4]): -0.2 °C
IC50 (HCC1806): 6.9 µM
IC50 (MDA-MB-231): 2.1 µM
Structure (SMILES): Cc1c2ccccc2c(CSC(=N)N)c2ccccc12
IC50 [2]: 3.5 µM
IC50 [3]: 5 µM
Activity (HCC1937 [5]): Active
Activity (HCC1937 [6]): Active
Activity (HCC1937 [7]): inactive

IC50 (HCC1937 [1]): 16.8 µM
IC50 (HCC1806): 12.5 µM
IC50 (MDA-MB-231): 6 µM
Structure (SMILES): N=C(N)SCc1c2ccccc2cc2ccccc12
IC50 [2]: 9.6 µM
IC50 [3]: 20.7 µM

IC50 (HCC1937 [1]): 6.4 µM
IC50 (HCC1806): 3.5 µM
IC50 (MDA-MB-231): 8.2 µM
Structure (SMILES): N=C(N)SCc1c2ccccc2c(Br)c2ccccc12
IC50 [2]: 20.3 µM
IC50 [3]: 24.5 µM

IC50 (HCC1937 [1]): > 50 µM
IC50 (HCC1806): > 50 µM
IC50 (MDA-MB-231): > 50 µM
Structure (SMILES): N=C(N)SCc1cccc2ccccc12
IC50 [2]: > 50 µM
IC50 [3]: > 50 µM

IC50 (HCC1937 [1]): > 50 µM
IC50 (HCC1806): > 50 µM
IC50 (MDA-MB-231): 48 µM
Structure (SMILES): N=C(N)SCC1c2ccccc2CCc2ccccc21
IC50 [2]: > 50 µM
IC50 [3]: > 50 µM

IC50 (HCC1937 [1]): > 50 µM
IC50 (HCC1806): > 50 µM
IC50 (MDA-MB-231): > 50 µM
Structure (SMILES): Cc1ccc(CSC(=N)N)cc1
IC50 [2]: > 50 µM
IC50 [3]: > 50 µM

IC50 (HCC1937 [1]): > 50 µM
IC50 (HCC1806): > 50 µM
IC50 (MDA-MB-231): > 50 µM
Structure (SMILES): N=C(N)SCc1ccc2ccccc2c1
IC50 [2]: > 50 µM
IC50 [3]: > 50 µM

IC50 (HCC1937 [1]): > 50 µM
IC50 (HCC1806): > 50 µM
IC50 (MDA-MB-231): > 50 µM
Structure (SMILES): N=C(N)SCc1c2ccccc2nc2ccccc12
IC50 [2]: > 50 µM
IC50 [3]: > 50 µM
